Laboratory results from patent US20250025526A1, “COMBINATION THERAPY FOR THE TREATMENT OF FRIEDREICH'S ATAXIA” (Stealth BioTherapeutics Inc., priority 2023, published 2025).
Where a SMILES comes first, the peptide text is derived from it. [ ]: non-standard residue; d: D form. Dmt = Cc1cc(O)cc(C)c1C[C@H](N)C(=O)O

Assays:
[1] = tested on: healthy (GM08402; Coriell) fibroblasts; assay: Cytoprotection assay, RSL3-induced ferroptosis, healthy fibroblasts (CellTiter-Glo cell viability); assay type: cell-based, human; conditions: healthy patient derived fibroblasts; 18 hour pre-incubation with test compounds 0.001 uM to 1 uM; then 1 uM RSL3 for 4 hours; FIG. 1
Method: (§1) To initiate the cytoprotection experiment, healthy (GM08402; Coriell) and FA (GM03665; Coriell) fibroblasts were resuspended in assay medium (Minimum Essential Medium Eagle w/Earles Salts and L-glutamine (MEM; Corning)+15% Qualified Fetal Bovine Serum (FBS)+penicillin (100 U)/streptomycin ([…]), seeded at 10,000 cells per well in a clear, tissue cultured treated 96 well plate), and incubated at 37° C. Eight hours later, the assay medium was manually removed and test compounds, elamipretide (Stealth Biotherapeutics Inc., Needham, MA) and omaveloxolone were added to a final volume of 100 uL at concentrations ranging between 0.001 uM and 1 uM. Following an 18 hour incubation at 37° C., the assay medium was again manually removed. Healthy fibroblasts and FA fibroblasts were then treated with 100 μL of 1 uM and 0.5 uM RSL3 (Sigma, Catalog #1219810), respectively, in assay medium for 4 hours at 37° C. Cell viability was assessed with CellTiter-Glo Luminescent Cell Viability (Promega). Luminescence units were quantified by GEN5 software on a BioTek SYNERGY neo2 plate reader (LUM filter). The data obtained for the health cells are graphically illustrated in FIG. 1 and the data obtained for the FA fibroblasts are graphically illustrated in FIG. 2. […]

[2] = tested on: FA (GM03665; Coriell) fibroblasts; assay: Cytoprotection assay, RSL3-induced ferroptosis, FA fibroblasts (CellTiter-Glo cell viability); assay type: cell-based, human; conditions: FA patient derived fibroblasts; 18 hour pre-incubation with test compounds 0.001 uM to 1 uM; then 0.5 uM RSL3 for 4 hours; FIG. 2
Method: as §1

Row | Compound | protective/rescue effect on the RSL3 treated cells (cell viability) [1] | protective/rescue effect on the RSL3 treated cells (cell viability) [2]
1 | CC1(C)CC[C@]2(NC(=O)C(C)(F)F)CC[C@]3(C)[C@H](C(=O)C=C4[C@@]5(C)C=C(C#N)C(=O)C(C)(C)[C@@H]5CC[C@]43C)[C@@H]2C1 [omaveloxolone, Omaveloxolone] | significant protective/rescue effect | significant protective/rescue effect
2 | Cc1cc(O)cc(C)c1C[C@H](NC(=O)[C@H](N)CCCNC(=N)N)C(=O)N[C@@H](CCCCN)C(=O)N[C@@H](Cc1ccccc1)C(N)=O [elamipretide, H-D-Arg-2′,6′Dmt-Lys-Phe-NH2] (H-[dR][Dmt]KF-NH2) | no apparent effect | no apparent effect
